In article PMC4621755 (Chemistry & biology, 2015):

Molecular target: T1, Acaa2 (Mus musculus, UniProt Q8BWT1)
T1 sequence (Q8BWT1 1-397): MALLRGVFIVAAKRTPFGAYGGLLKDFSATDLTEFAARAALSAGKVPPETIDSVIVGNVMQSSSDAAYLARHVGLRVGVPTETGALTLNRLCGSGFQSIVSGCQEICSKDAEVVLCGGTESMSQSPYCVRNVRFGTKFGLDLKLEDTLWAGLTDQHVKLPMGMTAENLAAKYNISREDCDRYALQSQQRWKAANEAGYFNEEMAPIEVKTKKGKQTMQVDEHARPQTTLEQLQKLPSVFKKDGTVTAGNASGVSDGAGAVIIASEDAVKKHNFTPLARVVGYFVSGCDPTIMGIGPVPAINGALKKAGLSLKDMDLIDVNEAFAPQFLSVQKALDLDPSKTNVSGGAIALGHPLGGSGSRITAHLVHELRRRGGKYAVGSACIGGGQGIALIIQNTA
Experiment: competition against IAyne labelling, in-gel fluorescence
Type: biochemical
Details: covalent; lysate of overexpressing HEK293T; 30 min preincubation

N#Cc1c(Cl)c(Cl)c(Cl)c(C#N)c1Cl [chlorothalonil]
% reduction in IAyne labeling at 100 nM: 9.4 ± 1.2%
